Experimental data reported in ChEMBL document CHEMBL1201862, “PubChem BioAssay data set” (2004).
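Protocol summary: plate cells (96-well), add compound at 5 concentrations, incubate 48 h, interpolate endpoints linearly. At the GI50, growth is halved.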 Activity calls are given as the source filed them. Rule as the data show it: active = GI50 up to about 1.1 µM and inactive = higher.

Key:
Assay in all cases: NCI anticancer screen, dose series, 48 h
786-0 = tested on: 786-0
A498 = tested on: A498
ACHN = tested on: ACHN
COLO 205 = tested on: COLO 205
DU-145 = tested on: DU-145
HCT-116 = tested on: HCT-116
IGROV-1 = tested on: IGROV-1
KM12 = tested on: KM12
M14 = tested on: M14
MCF7 = tested on: MCF7
MDA-MB-435 = tested on: MDA-MB-435
NCI-H23 = tested on: NCI-H23
PC-3 = tested on: PC-3
SF-539 = tested on: SF-539
SK-MEL-2 = tested on: SK-MEL-2
SN12C = tested on: SN12C
SNB-75 = tested on: SNB-75
UACC-62 = tested on: UACC-62
UO-31 = tested on: UO-31
SF-268 = tested on: SF-268

Measured: GI50

O=C(O)C(CCc1ccccc1)N1C(=O)c2ccccc2C1=O (centres undefined)
inactive: 786-0 > 100 µM | A498 > 100 µM | ACHN > 100 µM | COLO 205 > 100 µM | DU-145 > 100 µM | HCT-116 > 100 µM | IGROV-1 > 100 µM | KM12 > 100 µM | M14 > 100 µM | MCF7 > 100 µM | MDA-MB-435 > 100 µM | NCI-H23 > 100 µM | PC-3 > 100 µM | SF-539 > 100 µM | SK-MEL-2 > 100 µM | SN12C > 100 µM | SNB-75 > 100 µM | UACC-62 > 100 µM | UO-31 > 100 µM

CCCCC1=C(C(=O)N2CCOCC2)C2(OCCO2)C1=O
inactive: 786-0 18.2 µM | A498 27.8 µM | ACHN 17.4 µM | COLO 205 17.7 µM | DU-145 33 µM | HCT-116 18.5 µM | IGROV-1 17.9 µM | KM12 20.4 µM | M14 17.8 µM | MCF7 44.6 µM | MDA-MB-435 18.5 µM | NCI-H23 18.3 µM | PC-3 31.8 µM | SF-268 24 µM | SF-539 23 µM | SK-MEL-2 25.1 µM | SN12C 13.5 µM | SNB-75 43.5 µM | UACC-62 34.9 µM | UO-31 15.5 µM
